Columns and labels:
[1] = Stability of QC samples in rat plasma and tissue homogenates under different storage conditions; format: in vitro ADME; settings: in % (unit assumed)
[2] = Tissue distribution in rats after oral administration of Nauclea officinalis extracts (HPLC-MS/MS); format: in vivo
Experimental: Chromatographic analysis was performed on the LC-20ADXR System (Shimadzu, Japan). The Phenomenex Kinete EVO C18 100 Å (50 mm × 2.1 mm, 5 μm) column was used as the analytical column maintained at 40°C with (A) 0.1% formic acid aqueous solution and (B) acetonitrile as the mobile phase. […] The flow rate was 0.8 mL/min, and the injection volume was 5 μL.
Mass spectrometric detection was performed on an AB-SCIEX API 4000 mass spectrometer (AB SCIEX, Singapore) with ESI in negative ion multiple reaction monitoring (MRM) mode. The optimized instrument parameters were as follows: nebulizer gas: 50 psi, heated by N2 gas: 55 psi, ion spray voltage: −4500 V and temperature: 550°C; nebulizer, blowback gas, and collision gas were nitrogen; declustering potential (DP), collision energy (CE), and collision cell exit potential (CXP) of the four analytes and chloramphenicol (IS) are shown in Table 1.
Thirty rats were divided into five groups (n = 6) at random, which were orally administered Nauclea officinalis extracts at a dose of 2 g/kg for tissue distribution conducted at 0.5, 1, 2, 4, and 6 h. During the collection, the heart, liver, spleen, lung, kidney, stomach, small intestine, and brain were rinsed with physiological saline solution to get rid of the blood or content and blotted on filter paper and then weighed. Each tissue sample was accurately weighed and homogenized by using physiological saline at four times the tissue weight (w/v). The homogenates were stored at −80°C until analysis.
Drugs enter tissues that receive high blood flow first, followed by those that receive low blood flow.

Accuracy, Ambient temperature for 4 h ([1]; Lung, 140 ng/mL): 102.38 ± 4.12 | Accuracy, Autosampler at 4°C for 8 h ([1]; Lung, 140 ng/mL): 94.45 ± 5.92 | Accuracy, Three freeze-thraw cycles ([1]; Lung, 140 ng/mL): 93.75 ± 8.53 | Accuracy, −80°C for 30 days ([1]; Lung, 140 ng/mL): 92.58 ± 3.60 | Accuracy, Ambient temperature for 4 h ([1]; Lung, 2400 ng/mL): 111.37 ± 9.27 | Accuracy, Autosampler at 4°C for 8 h ([1]; Lung, 2400 ng/mL): 111.85 ± 9.53 | Accuracy, −80°C for 30 days ([1]; Lung, 2400 ng/mL): 111.67 ± 3.39 | Accuracy, Ambient temperature for 4 h ([1]; Plasma, 5 ng/mL): 101.95 ± 10.33 | Accuracy, Autosampler at 4°C for 8 h ([1]; Plasma, 5 ng/mL): 106.67 ± 10.88 | Accuracy, Three freeze-thraw cycles ([1]; Plasma, 5 ng/mL): 91.87 ± 8.63 | Accuracy, −80°C for 30 days ([1]; Plasma, 5 ng/mL): 109.57 ± 12.66 | Accuracy, Ambient temperature for 4 h ([1]; Plasma, 8 ng/mL): 108.88 ± 1.87 | Accuracy, Autosampler at 4°C for 8 h ([1]; Plasma, 8 ng/mL): 105.01 ± 6.32 | Accuracy, Three freeze-thraw cycles ([1]; Plasma, 8 ng/mL): 105.88 ± 1.87 | Accuracy, −80°C for 30 days ([1]; Plasma, 8 ng/mL): 113.33 ± 5.32 | Accuracy, Ambient temperature for 4 h ([1]; Plasma, 140 ng/mL): 87.67 ± 9.20 | Accuracy, Autosampler at 4°C for 8 h ([1]; Plasma, 140 ng/mL): 87.88 ± 4.14 | Accuracy, Three freeze-thraw cycles ([1]; Plasma, 140 ng/mL): 111.88 ± 1.87 | Accuracy, −80°C for 30 days ([1]; Plasma, 140 ng/mL): 111.57 ± 9.60 | Accuracy, Ambient temperature for 4 h ([1]; Plasma, 2400 ng/mL): 88.93 ± 6.01 | Accuracy, Autosampler at 4°C for 8 h ([1]; Plasma, 2400 ng/mL): 89.25 ± 7.58 | Accuracy, Three freeze-thraw cycles ([1]; Plasma, 2400 ng/mL): 89.17 ± 7.49 | Accuracy, −80°C for 30 days ([1]; Plasma, 2400 ng/mL): 113.83 ± 7.14 | Accuracy, Ambient temperature for 4 h ([1]; Small intestine, 5 ng/mL): 111.90 ± 12.07 | Accuracy, Autosampler at 4°C for 8 h ([1]; Small intestine, 5 ng/mL): 111.67 ± 8.14 | Accuracy, Three freeze-thraw cycles ([1]; Small intestine, 5 ng/mL): 111.17 ± 8.33 | Accuracy, −80°C for 30 days ([1]; Small intestine, 5 ng/mL): 112.67 ± 8.78 | Accuracy, Ambient temperature for 4 h ([1]; Small intestine, 8 ng/mL): 103.33 ± 3.39 | Accuracy, Autosampler at 4°C for 8 h ([1]; Small intestine, 8 ng/mL): 100.03 ± 11.46 | Accuracy, Three freeze-thraw cycles ([1]; Small intestine, 8 ng/mL): 100.60 ± 10.24 | Accuracy, −80°C for 30 days ([1]; Small intestine, 8 ng/mL): 104.25 ± 9.49 | Accuracy, Ambient temperature for 4 h ([1]; Small intestine, 140 ng/mL): 88.60 ± 9.48 | Accuracy, Autosampler at 4°C for 8 h ([1]; Small intestine, 140 ng/mL): 89.80 ± 8.30 | Accuracy, Three freeze-thraw cycles ([1]; Small intestine, 140 ng/mL): 87.88 ± 5.57 | Accuracy, −80°C for 30 days ([1]; Small intestine, 140 ng/mL): 90.17 ± 7.26 | Accuracy, Ambient temperature for 4 h ([1]; Small intestine, 2400 ng/mL): 107.48 ± 8.23 | Accuracy, Autosampler at 4°C for 8 h ([1]; Small intestine, 2400 ng/mL): 103.75 ± 6.68 | Accuracy, Three freeze-thraw cycles ([1]; Small intestine, 2400 ng/mL): 108.43 ± 8.65 | Accuracy, −80°C for 30 days ([1]; Small intestine, 2400 ng/mL): 102.32 ± 8.65 | Accuracy, Ambient temperature for 4 h ([1]; Spleen, 5 ng/mL): 110.33 ± 8.71 | Accuracy, Autosampler at 4°C for 8 h ([1]; Spleen, 5 ng/mL): 112.92 ± 8.72 | Accuracy, Three freeze-thraw cycles ([1]; Spleen, 5 ng/mL): 110.67 ± 8.57 | Accuracy, −80°C for 30 days ([1]; Spleen, 5 ng/mL): 109.68 ± 12.57 | Accuracy, Ambient temperature for 4 h ([1]; Spleen, 8 ng/mL): 99.28 ± 13.31 | Accuracy, Autosampler at 4°C for 8 h ([1]; Spleen, 8 ng/mL): 93.42 ± 8.00 | Accuracy, Three freeze-thraw cycles ([1]; Spleen, 8 ng/mL): 96.13 ± 11.98 | Accuracy, −80°C for 30 days ([1]; Spleen, 8 ng/mL): 101.90 ± 10.25 | Accuracy, Ambient temperature for 4 h ([1]; Spleen, 140 ng/mL): 93.13 ± 6.10 | Accuracy, Autosampler at 4°C for 8 h ([1]; Spleen, 140 ng/mL): 95.27 ± 7.08 | Accuracy, Three freeze-thraw cycles ([1]; Spleen, 140 ng/mL): 89.18 ± 8.23 | Accuracy, −80°C for 30 days ([1]; Spleen, 140 ng/mL): 92.35 ± 2.70 | Accuracy, Ambient temperature for 4 h ([1]; Spleen, 2400 ng/mL): 103.33 ± 8.37 | Accuracy, Autosampler at 4°C for 8 h ([1]; Spleen, 2400 ng/mL): 105.67 ± 8.50 | Accuracy, Three freeze-thraw cycles ([1]; Spleen, 2400 ng/mL): 107.73 ± 8.10 | Accuracy, −80°C for 30 days ([1]; Spleen, 2400 ng/mL): 109.83 ± 4.96 | Accuracy, Ambient temperature for 4 h ([1]; Stomach, 5 ng/mL): 111.00 ± 7.90 | Accuracy, Autosampler at 4°C for 8 h ([1]; Stomach, 5 ng/mL): 112.17 ± 7.25 | Accuracy, Three freeze-thraw cycles ([1]; Stomach, 5 ng/mL): 113.12 ± 9.97 | Accuracy, −80°C for 30 days ([1]; Stomach, 5 ng/mL): 113.83 ± 2.99 | Accuracy, Ambient temperature for 4 h ([1]; Stomach, 8 ng/mL): 107.32 ± 12.96 | Accuracy, Autosampler at 4°C for 8 h ([1]; Stomach, 8 ng/mL): 98.37 ± 10.75 | Accuracy, Three freeze-thraw cycles ([1]; Stomach, 8 ng/mL): 105.90 ± 9.13 | Accuracy, −80°C for 30 days ([1]; Stomach, 8 ng/mL): 103.55 ± 9.49 | Accuracy, Ambient temperature for 4 h ([1]; Stomach, 140 ng/mL): 88.15 ± 7.91 | Accuracy, Autosampler at 4°C for 8 h ([1]; Stomach, 140 ng/mL): 86.38 ± 8.38 | Accuracy, Three freeze-thraw cycles ([1]; Stomach, 140 ng/mL): 87.12 ± 5.24 | Accuracy, −80°C for 30 days ([1]; Stomach, 140 ng/mL): 88.28 ± 6.31 | Accuracy, Ambient temperature for 4 h ([1]; Stomach, 2400 ng/mL): 100.53 ± 7.29 | Accuracy, Autosampler at 4°C for 8 h ([1]; Stomach, 2400 ng/mL): 99.52 ± 5.85 | Accuracy, Three freeze-thraw cycles ([1]; Stomach, 2400 ng/mL): 104.90 ± 5.53 | Accuracy, −80°C for 30 days ([1]; Stomach, 2400 ng/mL): 102.32 ± 8.22 | Detection in studied tissues ([2]; heart, liver, spleen, lung, kidney, small intestine, stomach, brain, 0.5-6 h after oral extract 2 g/kg): could be detected in all studied tissue
Structure (SMILES): C/C=C1/COC(=O)[C@H]2C(=O)N3CCc4c([nH]c5ccccc45)[C@@H]3C[C@@H]12 [Naucleactonin C]
Abundance in small intestine versus stomach ([2]; after oral extract 2 g/kg): more abundant in the small intestine than in the stomach
